# Experimental data as given in patent US10150737B2, “Compounds for controlling arthropods” (priority 2013, dated 2018).
# Key:
# [1] = system: Aedes aegypti strain MONHEIM; assay: Aedes test (AEDSAE surface treatment); assay type: in vivo; conditions: read-out: efficacy (mortality)
# Procedure: (§1) Solvent: acetone+2000 ppm rapeseed oil methyl ester (RME)
# (§2) To produce an appropriate active ingredient formulation, the active ingredient is dissolved in the solvent (2 mg/ml). The active ingredient formulation is pipetted onto a glazed tile and, after it has dried off, adult mosquitoes of the species Aedes aegypti strain MONHEIM are placed onto the treated tile. The exposure time is 30 minutes.
# (§3) 24 hours after contact with the treated surface, mortality in % is determined. 100% means that all mosquitoes have been killed; 0% means that none of the mosquitoes have been killed.
# [2] = logP determination by HPLC on a reversed-phase column (C18); assay type: physicochemical; conditions: for logP: HPLC, C18 reversed phase, acetonitrile/water with formic acid, EEC Directive 79/831 Annex V.A8; for log P: HPLC-MS; for logP^a): HPLC-MS method a)
# Ctenocephalides felis [3] = assay: Ctenocephalides felis - in vitro contact tests with adult cat fleas; assay type: in vivo; conditions: application rate 5 μg/cm2 (=500 g/ha); after 48 h; fleas dead or moribund
# How it was run: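 Efficacy, as percentage of fleas dead or moribund, was scored at 48 h by knocking fleas to the tube base. Exposure was by contact with a dried acetone film of compound at 5 μg/cm^2 area dose; 5–10 adults per tube, room temperature, ambient humidity.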
# [4] = system: Boophilus microplus Parkhurst strain, SP-resistant; assay: Boophilus microplus - dip test; assay type: in vivo; conditions: application rate 100 ppm; dip of engorged adult female ticks; after 7 days
# How it was run: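 Compound dissolved in DMSO, diluted with water, and used to fully wet groups of 8-10 engorged female cattle ticks (SP-resistant Parkhurst strain). Fertile egg laying assessed at 7 days, doubtful eggs held ~42 days until hatch; 0% means all eggs fertile.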
# Musca domestica = Musca domestica test; assay type: in vivo; conditions: application rate 100 ppm; adult houseflies; after 2 days
# How it was run: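 Water-diluted DMSO stock of compound, mixed onto a sugar-treated sponge, served as the sole exposure route for ten adult houseflies. Kill percentage scored at 2 days.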
# [5] = system: Anopheles funestus strain FUMOZ-R; assay: Anopheles test (ANPHFU surface treatment); assay type: in vivo; conditions: read-out: efficacy (mortality)
# Procedure: as §1
# as §2, with “Anopheles funestus” for “Aedes aegypti”, “FUMOZ-R (Hunt et al., Med Vet Entomol. 2005 September; 19 (3):271-5)” for “MONHEIM”
# as §3
# Amblyomma hebraeum = assay: Amblyomma hebaraeum test (tick nymphs, immersion); assay type: in vivo; conditions: application rate 100 ppm; tick nymphs immersed one minute; after 42 days
# How it was run: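 Mortality (%) is read 42 days post-treatment, where 0% means no ticks and 100% all ticks killed. Nymphs were dipped for 1 min into the test dilution (DMSO stock diluted with water) and afterwards stored on filter paper under controlled climate.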
# Boophilus microplus = Boophilus microplus - injection test; assay type: in vivo; conditions: application rate 20 μg/animal, injection into engorged adult female ticks, after 7 days; for pest or weed control at 0.02 mg: Rhipicephalus microplus, 168 h, read-out: efficacy (laying of fertile eggs)
# How it was run: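 Five engorged adult female cattle ticks each received a 1 μl abdominal injection of compound solution in dimethyl sulphoxide. Fertile egg laying was assessed at 7 days, with doubtful eggs incubated about 42 days until hatch. 0% efficacy means all eggs fertile.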
# Tetranychus urticae = Tetranychus urticae - spray test, OP-resistant; assay type: in vivo; conditions: bean leaf discs, after 6 days
# How it was run: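 Mortality (%) read on day 6 after spraying Phaseolus vulgaris leaf discs carrying all mite stages with formulations at the desired concentration. Formulation: active ingredient in acetone plus dimethylformamide, made up with emulsifier-containing water (1000 ppm alkylaryl polyglycol ether).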
# Phaedon cochleariae = Phaedon cochleariae - spray test; assay type: in vivo; conditions: larvae on Chinese cabbage leaf discs, after 7 days
# How it was run: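 Mortality of mustard beetle larvae was scored as % at day 7 on Brassica pekinensis leaf discs. Discs had been treated by spraying at the desired concentration, using an acetone/dimethylformamide solution diluted in water with 1000 ppm alkylaryl polyglycol ether, and dried before larvae were added.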
# Spodoptera frugiperda = Spodoptera frugiperda - spray test; assay type: in vivo; conditions: caterpillars on maize leaf discs, after 7 days
# How it was run: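 Percent mortality of Spodoptera frugiperda caterpillars scored 7 days after placing them on dried maize leaf discs sprayed at the desired concentration. Spray formulation: compound dissolved in acetone/dimethylformamide, made up with water containing 1000 ppm emulsifier.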
# Meloidogyne incognita = Meloidogyne incognita test; assay type: in vivo; conditions: application rate 20 ppm; lettuce; after 14 days
# Procedure: Solvent: 125.0 parts by weight of acetone
# To produce an appropriate active ingredient formulation, 1 part by weight of active ingredient is mixed with the stated amount of solvent and the concentrate is diluted with water to the desired concentration.
# Vessels are filled with sand, active ingredient solution, an egg/larvae suspension of the southern root-knot nematode (Meloidogyne incognita) and lettuce seeds. The lettuce seeds germinate and the plants develop. The galls develop on the roots.
# After 14 days, the nematicidal efficacy in % is determined by the formation of galls. 100% means that no galls were found; 0% means that the number of galls on the treated plants corresponds to the untreated control.
# Myzus persicae = Myzus persicae - spray test; assay type: in vivo; conditions: Chinese cabbage leaf discs, after 6 days
# How it was run: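 Mortality of the green peach aphid, as % killed, was read 6 days after spraying infested Brassica pekinensis leaf discs. Compound formulated in acetone/dimethylformamide and made up with emulsifier-containing (1000 ppm) water.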
# [6] = system: Anopheles gamhiae strain RSPH (homozygot kdr); assay: Anopheles test (ANPHGB surface treatment); assay type: in vivo; conditions: read-out: efficacy (mortality)
# Procedure: as §1
# as §2, with “Anopheles gamhiae” for “Aedes aegypti”, “RSPH (homozygot kdr)” for “MONHEIM”
# as §3
# Rhipicephalus sanguineus = Rhipicephalus sanguineus - in vitro contact tests with adult brown dog ticks; assay type: in vivo; conditions: application rate 5 μg/cm2; after 48 h; ticks dead or moribund
# How it was run: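 Efficacy, scored after 48 h, is the % of adult ticks dead or moribund, i.e. unable to climb away on a 45-50° C hotplate within 5 min. Tubes held 5-10 ticks in the dark at room temperature, on an acetone-applied coating of 5 μg/cm^2 (900 ppm solution).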
# Ctenocephalides felis [7] = assay: Ctenocephalides felis - oral test; assay type: in vivo; conditions: application rate 100 ppm in citrated cattle blood; after 2 days
# How it was run: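 Roughly 20 unfed adult C. felis imbibe compound-dosed citrated cattle blood (DMSO formulation) across parafilm from a cylinder above their gauze chamber; percentage mortality recorded at day 2.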
# Lucilia cuprina = Lucilia cuprina test; assay type: in vivo; conditions: application rate 100 ppm; L1 larvae; after 2 days
# How it was run: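 Mortality (%) of first-instar blowfly larvae, about 20 per vessel, recorded 2 days after exposure to compound-treated minced horsemeat. Compound dissolved in dimethyl sulphoxide, then water-diluted to the desired concentration.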
# [8] = reversed-phase column (C18), Table I-T3
Compound,logP [2],efficacy (Ctenocephalides felis [3]),efficacy (laying of fertile eggs) [4],efficacy (kill) (Musca domestica),efficacy (kill) (Amblyomma hebraeum),efficacy (Tetranychus urticae; application rate 500 g/ha),"log P [2, 8]",efficacy (Phaedon cochleariae; application rate 500 g/ha),efficacy (Spodoptera frugiperda; application rate 500 g/ha),efficacy (Myzus persicae; application rate 100 g/ha),efficacy (Rhipicephalus sanguineus),efficacy (kill) (Ctenocephalides felis [7]),efficacy (kill) (Lucilia cuprina),efficacy (laying of fertile eggs) (Boophilus microplus),other results
"O=C(NC1CC1)c1cc(-c2cc(-c3c(Cl)cc(C(F)(C(F)(F)F)C(F)(F)F)cc3Cl)on2)ccc1Cl [I-T23-1, 2-chloro-N-cyclopropyl-5-[5-[2,6-dichloro-4-[1,2,2,2-tetrafluoro-1-(trifluoromethyl)ethyl]phenyl]isoxazol-3-yl]benzamide]",5.0,100%,100%,100%,100%,–,–,–,–,–,–,–,–,–,mortality at 20 mg/m2 [1]: 90 to 100%; mortality at 100 mg/m2 [1]: 90 to 100%; mortality at 20 mg/m2 [5]: 90 to 100%; pest or weed control at 0.02 mg (Boophilus microplus): 100%
O=C(NC1CC1)c1cc(-c2cnn(-c3c(Cl)cc(C(F)(F)F)c(F)c3Cl)c2)ccc1Cl [I-T3-184],–,–,–,–,–,100%,3.6,100%,100%,100%,–,–,–,–,nematicidal efficacy (formation of galls) (Meloidogyne incognita): 90%
"Cc1cc(C(F)(C(F)(F)F)C(F)(F)F)cc(C)c1-c1cc(-c2ccc(Cl)c(C(=O)NC3CC3)c2)on1 [I-T22-1, 2-chloro-N-cyclopropyl-5-[3-[2,6-dimethyl-4-[1,2,2,2-tetrafluoro-1-(trifluoromethyl)ethyl]phenyl]isoxazol-5-yl]benzamide]",4.8,100%,100%,100%,100%,–,–,–,–,100%,100%,–,–,–,mortality at 20 mg/m2 [1]: 90 to 100%; mortality at 100 mg/m2 [1]: 90 to 100%; mortality at 20 mg/m2 [5]: 90 to 100%; mortality at 100 mg/m2 [5]: 90 to 100%; mortality at 100 mg/m2 [6]: 90 to 100%; pest or weed control at 0.02 mg (Boophilus microplus): 100%
N#CC1(NC(=O)c2cc(-c3cnn(-c4c(Cl)cc(C(F)(F)F)c(F)c4Cl)c3)ccc2Cl)CC1 [I-T3-185],–,–,–,–,–,100%,3.6,100%,100%,–,–,–,–,–,nematicidal efficacy (formation of galls) (Meloidogyne incognita): 90%; efficacy (Myzus persicae; application rate 500 g/ha): 100%
Cc1cc(C(F)(C(F)(F)F)C(F)(F)F)cc(C(F)(F)F)c1-n1cc(-c2ccc(Cl)c(C(=O)NC3CC3)c2)cn1 [I-T3-54],–,100%,100%,100%,100%,–,–,–,–,100%,100%,100%,100%,100%,"efficacy (Tetranychus urticae; application rate 100 g/ha): 100%; logP^a) [2]: 4.4; logP^a) [2, 8]: 4.4; efficacy (Phaedon cochleariae; application rate 100 g/ha): 100%; efficacy (Spodoptera frugiperda; application rate 100 g/ha): 100%"
CCc1cc(C(F)(C(F)(F)F)C(F)(F)F)cc(C)c1-n1cc(-c2cnc(Cl)c(C(=O)NC3CC3)c2)cn1 [I-T3-109],–,100%,100%,100%,100%,100%,4.2,100%,100%,–,100%,100%,100%,100%,logP^a) ([2]; reversed-phase column (C18)): 4.2; efficacy (Myzus persicae; application rate 500 g/ha): 90%
Cc1cc(C(F)(C(F)(F)F)C(F)(F)F)cc(C)c1-c1cc(-c2ccc(Cl)c(C(=O)NC3(C#N)CC3)c2)on1 [I-T22-2],4.6,100%,100%,100%,100%,–,–,–,–,100%,100%,100%,100%,100%,efficacy (Tetranychus urticae; application rate 100 g/ha): 90%; efficacy (Phaedon cochleariae; application rate 100 g/ha): 100%; efficacy (Spodoptera frugiperda; application rate 100 g/ha): 100%
